Measured values as given in US8212038B2, “Methods and compositions for controlling ectoparasites” (HatchTech Pty Ltd., priority 2003, dated 2012).
Entries after “also recorded” stand apart in the source; their conditions may differ. Square brackets hold non-standard residues; d marks the D form. Peptide text beside a SMILES is read from it. * marks the point of attachment. Sta = CC(C)C[C@H](N)[C@@H](O)CC(=O)O; Isovaleryl = CC(C)CC(=O)*

Assays:
lice eggs [1] = assay: Time course in vitro lice egg hatching assay; assay type: in vivo, Pediculus humanus humanus
[2] = test system: Plutella xylostella eggs (Waite strain); assay: Egg hatch of Plutella xylostella after dipping in inhibitor; conditions: 10 mM
Procedure: The egg masses were then placed in a humid box at 25 degrees until egg hatch. Control eggs were exposed to absolute methanol as described above. At day 6 post laying the eggs were assessed from the different treatments and the percentage of egg hatch determined relative to the control as shown in Table 9.
Batches of Plutella eggs that were laid on either fine cloth or parafilm were dipped in a specific inhibitor solution for between 2-10 seconds, the excess solution was drained by blotting with dry tissue paper. The egg masses were then placed in a humid box at 25 degrees until egg hatch. Control eggs were exposed to absolute methanol as described above or not treated.
The egg masses were then placed in a humid box at 25 degrees until egg hatch. Control eggs were exposed to absolute ethanol as described above. On day 6 post laying the eggs were assessed from the different treatments and the percentage of egg hatch determined relative to the control.

lice eggs [3] = assay: Standard lice egg-hatching assay with commercial head lice products; assay type: in vivo; conditions: across the different stages of lice egg hatching (24-120 hr post laying)
Procedure: These three products were tested according to manufacturer's recommendations. Groups of eggs (24 hr old) were treated with the different products according to manufacturer's recommendations for the appropriate period of time (5-10 minutes) followed by a rinse for 1-2 minutes in 32° C. water. A positive controls (10 mM 1,10-phenanthroline) and two negative controls (no treatment and 20% Methanol) were also incorporated. Post exposure to the different products, the eggs were rinsed with warm water at 32° C. before being blotted dry on tissue paper and placed at 32° C., 70% RH and left to hatch. A second group of eggs, (48 hr old) were treated as previously described and also left to hatch. This process was repeated at 24 hr intervals on head lice eggs up to 120 hr post laying. This method of assaying inhibitors more closely mirrors the field situation where lice eggs will be at various stages of development on the head and permits the inhibitory effects to be observed on these different stages of the parasite.
These two products were tested according to manufacturer's recommendations. Groups of eggs (24 hr old) were treated with the different products according to manufacturer's recommendations for the appropriate period of time (5-10 minutes) followed by a rinse for 1-2 minutes in 32° C. water. Two negative controls (no treatment and 20% ethanol) were also incorporated. […]

[4] = test system: head lice egg (Pediculus humanus capitus); assay: Head lice egg hatching time course; assay type: in vivo; conditions: 10 mM
Procedure: Tests were carried out to determine if metal chelating agent and metalloprotease inhibitor 1,10-phenanthroline could inhibit head lice egg (Pediculus humanus capitus) hatching as opposed to body lice. Head lice eggs were obtained by placing groups of both 1-2 adult male and 6-8 adult female head lice in separate wells in a 24 well petri dish containing cotton cloth. The petri dish was transferred to a humid incubator at 32° C., 70% RH for 12 hours to permit the female lice to lay their eggs. After 12 hours, all adult lice were removed from the petri dish wells and a series of time-course experiments conducted. A group of eggs (24 hr old) was treated for 10 minutes with 200 μl of a 10 mM solution of 1,10-phenanthroline. A control (i.e., no inhibitor treatment) group of eggs was also included. The eggs were removed from the inhibitor, blotted dry on tissue paper, placed at 32° C., 70% RH and left to hatch. A second group of eggs, (48 hr old) were treated as previously described and also left to hatch. This process was repeated at 24 hr intervals on head lice eggs up to 120 hr post laying. This method of assaying inhibitors more closely mirrors the field situation where lice eggs will be at various stages of development on the head and permits the inhibitory effects to be observed on these different stages of the parasite.

lice eggs [5] = assay: Lice egg-hatching bioassay, eggs treated once 5 days post laying; assay type: in vivo, Pediculus humanus humanus
Procedure: To evaluate the potential effects of protease inhibitors on lice egg hatching it was necessary to develop a reliable in vitro bioassay. Male and female clothing lice were fed on a rabbit as previously described. […] During this period the female lice laid their eggs and attached them to the woven cloth. All lice would then be removed and the eggs permitted to incubate for the following 5 days. […] The eggs would then progress through to their final stages of development and hatch. In untreated control eggs a reliable average percentage hatch of between 85-95 percent was obtained using the in vitro egg hatch assay. […] Lice eggs were laid onto cloth as described above. […] Protease inhibitor solutions were typically prepared as stock solutions and added fresh at the appropriate concentration. Specifically stock solutions were prepared as follows: 1,10-phenanthroline (200 mM in methanol) and Bestatin (5 mg/ml in methanol). In addition, the equivalent levels of the solvent were added to the non-inhibitor containing controls eggs to test for any buffer alone effects. Percentage hatch inhibition was calculated as the percentage reduction in egg hatch compared to the untreated control.

[6] = test system: proteases in the egg shell washings (ESW) of lice eggs; assay: Gelatine substrate SDS-PAGE of egg shell washings treated with protease inhibitors; assay type: biochemical, Pediculus humanus humanus; conditions: 37° C., 3 hrs
Procedure: Within 12 hours of hatching 50 body lice eggs (Pediculus humanus humanus) were removed from the hair and placed in a 1 ml eppendorf tube. 20 μL of distilled water was added to the unhatched eggs and the preparation incubated for 30 minutes at 32° C. The 20 μL was recovered, freeze dried and stored at −70° C. A number of other samples were also collected as described. Hair samples from which unhatched lice eggs had been removed were also collected and incubated as described above. In addition, a sample of unhatched eggs and a sample of hair from which lice eggs had been removed were collected 7 days post laying (within 24 hrs of egg hatching). Both samples were washed in 10 mls of a 1% solution of sodium hypochlorite for 1 minute followed by a 5×1 minute washes in 25 mls in distilled water to remove the hypochlorite. These samples were then incubated in […] of distilled water as described above. In addition, a group of 25 lice eggs that were within 24 hours of hatching, were pretreated with 1% sodium hypochlorite, washed as described above and left to hatch. Within 1-2 hours after hatching the empty egg shells were incubated in 20 μL of distilled water as described above, the washings collected from the hatched egg shells and stored at −70° C. All of the extract samples were then freeze-dried overnight. The freeze-dried samples were then resuspended in […] of non-reducing SDS sample buffer, centrifuged at 10,000 g for 2 minutes and the entire 15 μL loaded on to 10% gelatine substrate SDS-PAGE gels. Gels were run at 4° C. for 10 minutes at 10 mA followed by a further 25 minutes at 15 mA per gel. They were then incubated for 2×20 minutes in a 2.5% Triton-X 100 solution followed by a three hour incubation in 0.1M Tris/HCl containing 1 mM CaCl2 pH 8.0. Activity was detected as clear areas on the gel the result of protease activity degrading the gelatine within the gel.
10% SDS-PAGE gelatine substrate gels were loaded with freeze dried egg shell washings from 100 lice eggs that had been resuspended in 50 μl of non-reducing sample buffer with samples run at 10 μl per lane. Gels were run at 4° C. for 10 minutes at 10 mA per gel followed by a further 25 minutes at 15 mA per gel. Gels were then cut into strips and each strip incubated for 2×20 minutes in a 2.5% Triton-X 100 solution containing a specific inhibitor. The inhibitors used were the serine protease inhibitor PMSF (5 mM), the metalloprotease inhibitor 1,10-phenanthroline (10 mM), the aspartic protease Pepstatin (5 μM) and the cysteine inhibitor E-64 (10 μM). The gel strips were then incubated in 0.1M Tris/HCl containing 1 mM CaCl2 pH 8 containing the different protease inhibitors for 3 hrs at 37° C., before being stained in Coomassie blue and destained as previously described.

[7] = test system: Helicoverpa armigera eggs (Tatura×Toowoomba strains); assay: Egg hatch of Helicoverpa armigera after exposure to inhibitor; conditions: 10 mM
Procedure: Several hundred Helicoverpa armigera eggs (Tatura×Toowoomba strains) were collected, that had been laid on fine mesh cloth over a 24 hour period.
Batches of Helicoverpa eggs were exposed to a specific inhibitor solution for between 2-10 seconds the excess solution drained by blotting with dry tissue paper. The egg masses were then placed in a humid box at 25 degrees until egg hatch. Control eggs were exposed to absolute methanol as described above.

[8] = added within 24 hours of hatching, data not shown

Question: Which results are given for c1cnc2c(c1)ccc1cccnc12 [1,10-phenanthroline, reference compound]?
Answer: inhibition of lice egg hatching (in words) (lice eggs [1]; 10 mM, following washing of eggs in water): still highly efficacious at inhibiting lice egg hatching; inhibition of lice egg hatching (in words) (lice eggs [1]; varying concentrations (10, 5, 2.5 mM) over the time course): Significant inhibition; also recorded: significantly inhibit egg hatching in lice at all time points examined; inhibition of egg hatching in Plutella xylostella (in words) [2]: significantly inhibit egg hatching; ovicidal activity (in words) (lice eggs [3]): highly effective at inhibiting lice egg hatching; inhibition of egg hatching in head lice (in words) [4]: significantly inhibit egg hatching in head lice; inhibition of egg hatching in lice (in words) (lice eggs [5]; 10 mM, eggs treated 5 days post laying): significantly inhibited egg hatching; inhibition of egg hatching in lice (in words) (lice eggs [5]; [8]): variable inhibition of egg hatching; protease activity of ESW on gelatine SDS-PAGE after inhibitor treatment ([6]; 10 mM inhibitor): significant reduction in protease activity; inhibition of egg hatching of Helicoverpa armigera (in words) [7]: able to inhibit egg hatching at 10 mM only

Question: For CC(C)C[C@H](NC(=O)[C@@H](O)[C@H](N)Cc1ccccc1)C(=O)O [Bestatin, reference compound], which “inhibition of lice egg hatching (in words)” value (lice eggs [1]; 5 mM, time course) is on record?
Answer: significant inhibition, but only when applied approximately 24 hrs prior to egg hatch; also recorded: partially inhibit lice egg hatching

Question: What about the “inhibition of egg hatching in lice (in words)” value (lice eggs [5]; 5 mM, eggs treated 5 days post laying) of the same compound?
Answer: significantly inhibit lice egg hatching

Question: What about the “inhibition of egg hatching in lice (in words)” value (lice eggs [5]; [8]) of the same compound?
Answer: variable inhibition of egg hatching

Question: With CC(C)C[C@H](NC(=O)[C@H]1O[C@@H]1C(=O)O)C(=O)NCCCCN=C(N)N [E64] as the compound, how does the “protease activity of ESW on gelatine SDS-PAGE after inhibitor treatment” value (shortened to “protease activity … after inhibitor treatment”) ([6]; 10 μM inhibitor) read?
Answer: No reduction in protease activity

Question: For O=S(=O)(F)Cc1ccccc1 [PMSF], which “protease activity … after inhibitor treatment” value ([6]; 5 mM inhibitor) is on record?
Answer: No reduction in protease activity

Question: For CC(C)CC(=O)N[C@H](C(=O)N[C@H](C(=O)N[C@@H](CC(C)C)[C@@H](O)CC(=O)N[C@@H](C)C(=O)N[C@@H](CC(C)C)[C@@H](O)CC(=O)O)C(C)C)C(C)C [pepstatin] (Isovaleryl-VV[Sta]A[Sta]-OH), which “protease activity … after inhibitor treatment” value ([6]; 5 μM inhibitor, data not shown) is on record?
Answer: did not show any reduction in protease activity; also recorded: No reduction in protease activity
